Assay results reported in ChEMBL document CHEMBL4371085, “Novel M4 positive allosteric modulators derived from questioning the role and impact of a presumed intramolecular hydrogen-bonding motif in β-amino carboxamide-harboring ligands” (Bioorg Med Chem Lett, 2019).

How the values were obtained:
[1] = molecular target: T1, Muscarinic acetylcholine receptor M4 (Homo sapiens) (UniProt P08173); assay: Positive allosteric modulation of Gqi5-fused human M4 AChR assessed as increase in acetylcholine-induced calcium mobilization relative to acetylcholine alone; format: functional
T1 sequence (whole entry): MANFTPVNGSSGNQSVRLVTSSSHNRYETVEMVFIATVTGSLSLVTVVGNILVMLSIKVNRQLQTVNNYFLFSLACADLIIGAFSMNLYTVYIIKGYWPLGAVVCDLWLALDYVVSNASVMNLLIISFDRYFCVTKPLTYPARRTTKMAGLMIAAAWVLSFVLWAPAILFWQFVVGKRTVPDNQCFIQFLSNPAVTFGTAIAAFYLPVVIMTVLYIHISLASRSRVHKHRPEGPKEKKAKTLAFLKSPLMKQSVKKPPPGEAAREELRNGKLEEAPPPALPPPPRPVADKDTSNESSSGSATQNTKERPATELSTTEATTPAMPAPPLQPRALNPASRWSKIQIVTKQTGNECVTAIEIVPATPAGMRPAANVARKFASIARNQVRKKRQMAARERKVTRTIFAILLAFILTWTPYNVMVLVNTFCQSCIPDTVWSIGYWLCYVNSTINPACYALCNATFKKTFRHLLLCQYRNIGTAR

[2] = molecular target: T2, Muscarinic acetylcholine receptor M4 (Homo sapiens, UniProt P08173); assay: Positive allosteric modulation of Gqi5-fused human M4 AChR assessed as increase in acetylcholine-induced calcium mobilization; format: functional
T2 sequence (P08173 whole entry): T1 sequence (whole entry)

[3] = Fraction unbound in rat plasma; format: ADME, cell-free
Cytochrome P450 = assay: Inhibition of CYP450 (unknown origin); format: ADME, protein assay; details: human
P-gp (ABCB1) = P-gp (ABCB1) (Homo sapiens, UniProt P08183); assay: Substrate activity at human P-gp assessed as efflux ratio; format: ADME; details: not told
Chain of P-gp (ABCB1) (P08183 whole entry): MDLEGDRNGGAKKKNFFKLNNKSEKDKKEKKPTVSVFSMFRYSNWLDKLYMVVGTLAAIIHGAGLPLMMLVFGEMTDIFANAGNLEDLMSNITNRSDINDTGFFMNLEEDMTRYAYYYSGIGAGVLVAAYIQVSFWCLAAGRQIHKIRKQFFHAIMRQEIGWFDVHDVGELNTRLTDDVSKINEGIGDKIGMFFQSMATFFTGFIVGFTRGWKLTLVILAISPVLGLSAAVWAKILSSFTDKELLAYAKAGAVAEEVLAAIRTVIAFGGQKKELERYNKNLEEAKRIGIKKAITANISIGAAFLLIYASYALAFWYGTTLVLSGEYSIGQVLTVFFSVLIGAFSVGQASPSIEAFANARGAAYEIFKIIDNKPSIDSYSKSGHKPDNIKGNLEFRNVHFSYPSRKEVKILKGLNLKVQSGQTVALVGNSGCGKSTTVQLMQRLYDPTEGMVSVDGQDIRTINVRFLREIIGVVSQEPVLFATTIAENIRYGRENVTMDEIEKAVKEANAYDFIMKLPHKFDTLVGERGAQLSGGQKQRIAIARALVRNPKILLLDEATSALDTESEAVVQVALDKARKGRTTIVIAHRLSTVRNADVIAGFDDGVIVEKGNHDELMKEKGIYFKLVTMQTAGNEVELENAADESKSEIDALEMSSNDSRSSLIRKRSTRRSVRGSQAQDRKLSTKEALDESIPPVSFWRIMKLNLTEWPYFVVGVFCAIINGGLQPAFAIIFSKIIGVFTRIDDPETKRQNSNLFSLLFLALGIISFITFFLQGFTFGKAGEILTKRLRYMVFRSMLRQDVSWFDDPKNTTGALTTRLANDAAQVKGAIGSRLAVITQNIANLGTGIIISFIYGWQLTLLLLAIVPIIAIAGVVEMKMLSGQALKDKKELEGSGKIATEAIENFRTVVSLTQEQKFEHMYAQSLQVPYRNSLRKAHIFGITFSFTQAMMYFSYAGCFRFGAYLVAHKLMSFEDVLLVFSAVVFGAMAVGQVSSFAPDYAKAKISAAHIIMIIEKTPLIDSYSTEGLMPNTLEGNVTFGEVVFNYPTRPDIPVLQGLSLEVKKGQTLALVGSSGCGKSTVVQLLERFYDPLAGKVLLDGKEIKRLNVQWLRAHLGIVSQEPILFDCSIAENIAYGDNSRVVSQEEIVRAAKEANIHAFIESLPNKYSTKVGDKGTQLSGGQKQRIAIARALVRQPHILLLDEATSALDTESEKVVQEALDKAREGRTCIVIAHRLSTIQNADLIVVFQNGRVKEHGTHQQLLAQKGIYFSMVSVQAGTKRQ

Cytochrome P450 2C9 = Cytochrome P450 2C9 (Homo sapiens, UniProt P11712); assay: Inhibition of CYP2C9 (unknown origin); format: ADME
Chain of Cytochrome P450 2C9 (P11712 whole entry): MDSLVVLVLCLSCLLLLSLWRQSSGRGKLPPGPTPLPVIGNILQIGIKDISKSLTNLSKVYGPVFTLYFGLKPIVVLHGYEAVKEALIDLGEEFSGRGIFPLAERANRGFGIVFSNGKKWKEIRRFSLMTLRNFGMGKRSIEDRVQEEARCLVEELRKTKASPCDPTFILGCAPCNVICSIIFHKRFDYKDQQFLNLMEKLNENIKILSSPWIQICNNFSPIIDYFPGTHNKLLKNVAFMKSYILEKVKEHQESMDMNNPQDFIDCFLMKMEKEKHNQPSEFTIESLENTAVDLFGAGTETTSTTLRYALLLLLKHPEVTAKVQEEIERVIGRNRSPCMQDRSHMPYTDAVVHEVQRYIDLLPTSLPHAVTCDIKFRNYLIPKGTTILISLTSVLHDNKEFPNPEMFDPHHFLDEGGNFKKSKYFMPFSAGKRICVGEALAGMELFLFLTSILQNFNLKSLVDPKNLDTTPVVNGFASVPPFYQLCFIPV

Cytochrome P450 1A2 = molecular target: T3, Cytochrome P450 1A2 (Homo sapiens, UniProt P05177); assay: Inhibition of CYP1A2 (unknown origin); format: ADME
T3 sequence (P05177 whole entry): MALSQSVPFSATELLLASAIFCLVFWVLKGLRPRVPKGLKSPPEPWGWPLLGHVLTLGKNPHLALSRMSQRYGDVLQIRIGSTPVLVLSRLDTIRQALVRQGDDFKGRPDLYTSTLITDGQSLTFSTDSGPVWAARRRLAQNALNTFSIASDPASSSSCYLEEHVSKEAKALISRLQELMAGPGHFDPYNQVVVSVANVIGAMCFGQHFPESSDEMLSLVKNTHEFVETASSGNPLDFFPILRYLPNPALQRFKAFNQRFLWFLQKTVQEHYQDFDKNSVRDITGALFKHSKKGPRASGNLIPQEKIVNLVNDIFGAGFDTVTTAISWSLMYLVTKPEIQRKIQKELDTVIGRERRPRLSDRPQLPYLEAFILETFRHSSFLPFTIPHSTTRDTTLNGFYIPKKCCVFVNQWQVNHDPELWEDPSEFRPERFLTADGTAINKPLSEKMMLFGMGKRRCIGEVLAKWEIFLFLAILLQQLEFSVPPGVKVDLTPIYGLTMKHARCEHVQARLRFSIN

[4] = Brain to plasma partition coefficient, Kp of the compound in rat; format: ADME, cell-free

Compound	Emax [1] [%]	EC50 [2] [nM]	fraction unbound [3]	inhibition (INH) (Cytochrome P450)	other results
Cc1cc(C)c2c(n1)sc1c(NCC3CC3)n[nH]c12	67	2000			
Cc1cc(C)c2c(n1)sc1c(NCc3ccc(F)cc3)n[nH]c12	62	1100			
CSc1ccc(CNC(=O)c2sc3nc(C)cc(C)c3c2C)cc1	45	1500	< 0.005	Active	
Cc1cc(C)c2c(C)c(C(=O)NCc3ccc4c(c3)OCCO4)sc2n1	56	2100	< 0.005	Active	
COc1ccc(CNC(=O)c2sc3nnc(C)c(C)c3c2C)cc1F	56	2100	< 0.005	Active	
Cc1cc(C)c2c(C)c(C(=O)NCc3ccc(S(C)(=O)=O)cc3)sc2n1	58	6400	< 0.005	Active	
Cc1nnc2sc3c(NCc4ccc(S(C)(=O)=O)c(F)c4)nn(C)c3c2c1C	58	160			Fu [3]: 0.05; INH (Cytochrome P450): > 30 µM; efflux ratio (P-gp (ABCB1)): > 10
COc1ccc(CNC(=O)c2sc3nnc(C)c(C)c3c2N)cc1F	75				
Cc1nnc2sc3c(NCc4ccc5c(c4)OCCO5)nn(C)c3c2c1C	91	60			
COc1ccc(CNc2nn(C)c3c2sc2nc(C)c(Cl)c(C)c23)cc1	51	> 10000			
Cc1nc2sc3c(NCC4CC4)nn(C)c3c2c(C)c1Cl	67	230			IC50 (Cytochrome P450 2C9): 1000 nM; Fu [3]: < 0.001; IC50 (Cytochrome P450 1A2): < 100 nM
Cc1nnc2sc3c(NCC4CC4)nn(C)c3c2c1C	84	620			
COc1ccc(CNC(=O)c2sc3nc(C)cc(C)c3c2C)cc1	49	2700	< 0.005	Active	
COc1ccc(CNC(=O)c2cc3c(C)c(C)nnc3s2)cc1F	66	1500	< 0.005	Active	
CCc1c(C(=O)NCc2ccc(OC)c(F)c2)sc2nnc(C)c(C)c12	73	2200	< 0.005	Active	
Cc1nnc2sc3c(NCC4CCCO4)nn(C)c3c2c1C (stereo unspecified)	102	180			

Compound	Emax [1] [%]	EC50 [2] [nM]	fraction unbound [3]	inhibition (INH) (Cytochrome P450)	other results
Cc1nc2sc3c(NCc4ccco4)nn(C)c3c2c(C)c1Cl	59	120			IC50 (Cytochrome P450 2C9): 1000 nM; Fu [3]: < 0.001; IC50 (Cytochrome P450 1A2): < 100 nM
Cc1cc(C)c2c(n1)sc1c(NCc3ccccc3)n[nH]c12	66	1000			
CCc1c(C(=O)NCc2ccc(S(C)(=O)=O)cc2)sc2nc(C)cc(C)c12	57	2700	< 0.005	Active	
COc1ccc(CNC(=O)c2sc3nnc(C)c(C)c3c2C2CC2)cc1F	35	5600	< 0.005	Active	
Cc1cc(C)c2c(C)c(C(=O)NCc3ccc(OC(F)(F)F)cc3)sc2n1	29	> 10000	< 0.005	Active	
Cc1nc2sc3c(NCc4ccc(F)cc4)nn(C)c3c2c(C)c1Cl	56	> 10000			
COc1ccc(CNC(=O)c2cc3c(C)cc(C)nc3s2)cc1	53	5100	< 0.005	Active	
COc1ccc(CNc2nn(C)c3c2sc2nnc(C)c(C)c23)cc1	79	40			Kp [4]: 0.25; Fu [3]: 0.02; INH (Cytochrome P450): > 30 µM
Cc1cc(C)c2c(n1)sc1c(NCc3ccco3)n[nH]c12	76	1200			
Cc1nc2sc3c(NCc4ccccc4)nn(C)c3c2c(C)c1Cl	39	> 10000			
Cc1nnc2sc(C(=O)NC3COC3)c(C3CC3)c2c1C	38	> 10000	< 0.005	Active	
Cc1nnc2sc3c(NCc4ccco4)nn(C)c3c2c1C	91	690			
Cc1cc(C)c2c(C)c(C(=O)NCc3ccc4c(c3)CCO4)sc2n1	50	5900	< 0.005	Active	
Cc1cc(C)c2c(n1)sc1c(NCC3CCCC3)n[nH]c12	65	3800			
COc1ccc(CNc2n[nH]c3c2sc2nc(C)cc(C)c23)cc1	67	2200			Fu [3]: < 0.002; INH (Cytochrome P450): < 5 µM
